# Laboratory results published in publication PMC6382874, “Succinylation-dependent mitochondrial translocation of PKM2 promotes cell survival in response to nutritional stress” (Cell Death & Disease, 2019).
# Where two headings read alike, the source gives them in different places. Peptide text beside a SMILES is read from it. * marks the point of attachment. Cbz = O=C(OCc1ccccc1)*
# How the values were obtained:
# [1] = tested on: PKM2; design: method as in PMID 20005212; settings: high-throughput screen; cited from earlier work
# [2] = tested on: tumor cell; settings: cited from earlier work
# [3] = tested on: VDAC3; experiment: VDAC3 protein level (western blot) in HCT116 cells; assay type: cell-based, human; settings: 10 μM, 8 h, HCT116
# From the text: HCT116 cell lysates were subject to immunoprecipitation with control IgG and anti-VDAC3 antibodies. d, e In vitro binding assay of purified His-tagged-PKM2 and GST-tagged-VDAC3. f K433E enhanced the interaction of PKM2 and VDAC3. Stagged-WT PKM2, a succinylation mimic K433E and a succinylation null mutant K433R and flag-VDAC3 were co-transfected into HCT116 cells for Stag bead pull down that specially pulls down Stagged proteins. g Glucose starvation enhanced the interaction of PKM2 and VDAC3. […]
# Fig. 6 Compound 8 blocks PKM2 mitochondrial translocation under nutritional stress and inhibits tumor growth in vivo. a Compound 8 blocks glucose starvation induced PKM2 mitochondrial translocation. […] HCT116 cells were transfected with HA-tagged PKM2, cells were harvested and subjected to stag pull down after 8 h 20 µM compound 8 treatment. c Compound 8 induces VDAC3 for degradation. cells were harvested and evaluated VDAC3 protein levels after 8 h 10 or 20 µM compound 8 treatment. d, e Compound 8 caused a decrease in the rate of NADH oxidation. […] NAD/NADH ratios in HCT116 cell lysates were evaluated by LC–MS. f Compound 8 inhibited ATP production in HCT116 cells. g The tumor volume (n = 7) of HCT116 xenografts from mice with intraperitoneal injection of compound 8 and vehicle control […]
# [4] = molecular target: T1, PKM1 (Homo sapiens, UniProt P14618); experiment: fluorescent PK-LDH coupled assay, PKM1; assay type: biochemical
# T1 construct: His-tag (N); made in house; host or cells: Escherichia coli BL21
# T1 sequence (P14618 1-531 isoform P14618-2): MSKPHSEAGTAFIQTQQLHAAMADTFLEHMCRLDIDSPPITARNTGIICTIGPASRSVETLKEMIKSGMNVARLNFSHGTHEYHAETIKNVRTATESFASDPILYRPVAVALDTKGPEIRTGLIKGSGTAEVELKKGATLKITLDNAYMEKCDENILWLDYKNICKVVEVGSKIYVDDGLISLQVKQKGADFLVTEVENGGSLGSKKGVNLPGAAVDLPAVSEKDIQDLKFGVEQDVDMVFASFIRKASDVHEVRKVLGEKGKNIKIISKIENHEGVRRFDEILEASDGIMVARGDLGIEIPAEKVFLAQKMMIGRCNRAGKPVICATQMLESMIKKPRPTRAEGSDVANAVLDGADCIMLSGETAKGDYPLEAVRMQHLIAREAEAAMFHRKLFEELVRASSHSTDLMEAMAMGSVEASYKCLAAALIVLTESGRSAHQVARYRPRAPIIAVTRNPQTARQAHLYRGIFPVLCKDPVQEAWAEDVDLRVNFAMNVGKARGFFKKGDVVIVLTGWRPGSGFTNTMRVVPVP
# Experimental: (§1) Human cDNA for PKM2, PKM1, and VDAC3 were separately cloned into a pET28a (+) and pGEX-4T-1 vector with an N-terminal His-tag and N-terminal GST-tag and purified from the Escherichia coli strain BL21 (Invitrogen) using Ni–agarose beads and GST agarose beads (Qiagen) as described previously. PKL was purchased from Sino Biological Inc. in China.
# (§2) Pyruvate kinase activity was measured with a fluorescent pyruvate kinase–lactate dehydrogenase coupled assay as described previously. All compounds were tested in a kinetic mode by coupling the generation of pyruvate by pyruvate kinase to the depletion of NADH through lactate dehydrogenase. For PKM2, 40 μL of buffer (50 mM Tris–HCl, pH 7.5, 10 mM KCl, 5 mM MgCl2), 1 μL of compound and 5 μL of enzyme solution were dispensed into Corning black solid 96-well plates and incubated for 15 min. Totally, 55 μL of substrate mix (final concentration, 0.5 mM PEP, 4.0 mM ADP, 0.12 mM NADH, 0.25 mM FBP, and 1 unit LDH) were then added, and the plates were placed in a FlexStation3 (Molecular Devices), followed by determination of NADH fluorescence at 30 s exposure intervals for 3–6 min. Data were collected on a FlexStation3.
# [5] = molecular target: T2, PKL (Homo sapiens, UniProt P30613); experiment: fluorescent PK-LDH coupled assay, PKL; assay type: biochemical
# T2 construct: purchased Sino Biological Inc
# T2 sequence (P30613 1-543 isoform P30613-2, species assumed): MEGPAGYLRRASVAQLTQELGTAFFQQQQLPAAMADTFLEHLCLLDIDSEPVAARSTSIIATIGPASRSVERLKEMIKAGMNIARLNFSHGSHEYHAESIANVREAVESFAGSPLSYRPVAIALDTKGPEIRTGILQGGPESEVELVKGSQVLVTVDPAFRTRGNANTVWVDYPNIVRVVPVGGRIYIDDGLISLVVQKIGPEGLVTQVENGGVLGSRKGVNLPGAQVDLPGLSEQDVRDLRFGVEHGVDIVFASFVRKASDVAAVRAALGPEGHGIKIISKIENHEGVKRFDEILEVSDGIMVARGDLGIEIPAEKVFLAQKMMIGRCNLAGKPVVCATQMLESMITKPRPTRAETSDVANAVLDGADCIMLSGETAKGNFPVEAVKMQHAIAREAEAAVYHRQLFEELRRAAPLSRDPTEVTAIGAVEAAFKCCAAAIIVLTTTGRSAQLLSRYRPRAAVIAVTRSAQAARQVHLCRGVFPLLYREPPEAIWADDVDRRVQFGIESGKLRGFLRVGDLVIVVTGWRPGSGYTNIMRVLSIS
# Experimental: as §1, §2
# [6] = tested on: HCT116 cells; experiment: cell viability test, HCT116; assay type: cell-based, human; settings: Homo sapiens, HCT-116, 48 h, read-out: IC50 (HCT116)
# Experimental: (§3) We assessed the anti-tumor effects of compound 8 by evaluation of cancer cell viability. Compound 8 reduced cell viability with an IC50 of about 5 µM in MTT reduction assays in HCT116, MCF7, and H1299 cells (Table 2). […] To determine whether cancer cell death brought about by compound 8 is PKM2 dependent, PKM2 was knocked down in HCT116 cells using two different shRNA sequences that specifically targeted exon 10 without interfering with PKM1 expression. Compound 8 is an inhibitor which causes a loss of function of PKM2. If PKM2 is a specially targeted by compound 8, its knockdown should render cells more vulnerable to compound 8-mediated PKM2 inhibition since shRNA and compound 8 work synergistically by reducing the intracellular drug target concentration.
# (§4) Cells were seeded in 96-well plates at 5000 cells/well in DMEM media overnight. Cells were treated with different concentrations of test compound for 48 h at 37 °C in 5% CO2. Cell viability was assayed with the MTS assay (Promega) and trypan blue staining according to the manufacturer’s instructions.
# [7] = tested on: MCF7 cells; experiment: cell viability test, MCF7; assay type: cell-based; settings: Homo sapiens, MCF7, 48 h, read-out: IC50 (MCF7)
# Experimental: as §3, §4
# [8] = tested on: H1299 cells; experiment: cell viability test, H1299; assay type: cell-based; settings: Homo sapiens, NCI-H1299, 48 h, read-out: IC50 (H1299)
# Experimental: as §3, §4
# [9] = molecular target: PKM2 (Homo sapiens, UniProt P14618); experiment: fluorescent pyruvate kinase-lactate dehydrogenase (PK-LDH) coupled assay, PKM2; assay type: biochemical; design: His-tag (N); made in house; host or cells: Escherichia coli BL21
# Chain of PKM2 (Homo sapiens, UniProt P14618) (P14618 whole entry): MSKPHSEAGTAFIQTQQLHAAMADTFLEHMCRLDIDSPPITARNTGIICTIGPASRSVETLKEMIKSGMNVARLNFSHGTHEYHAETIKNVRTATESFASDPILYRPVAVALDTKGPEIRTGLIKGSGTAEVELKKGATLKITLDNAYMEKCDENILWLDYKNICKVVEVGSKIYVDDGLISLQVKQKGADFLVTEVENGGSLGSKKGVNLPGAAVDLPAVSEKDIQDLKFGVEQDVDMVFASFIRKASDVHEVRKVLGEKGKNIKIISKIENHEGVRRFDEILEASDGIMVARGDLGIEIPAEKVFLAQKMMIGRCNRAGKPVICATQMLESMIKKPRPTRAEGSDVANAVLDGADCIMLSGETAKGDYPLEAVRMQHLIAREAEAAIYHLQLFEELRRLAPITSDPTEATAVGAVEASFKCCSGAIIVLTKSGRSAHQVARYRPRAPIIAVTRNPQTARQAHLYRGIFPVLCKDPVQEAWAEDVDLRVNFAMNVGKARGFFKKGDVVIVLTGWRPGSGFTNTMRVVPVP
# Experimental: A random screening of an in-house small molecule library (~1000 total molecules) was undertaken to identify new PKM2 modulators, which can block the interaction of PKM2 and VDAC3. The activity of these test compounds was assessed with a fluorescent PK-LDH coupled assay by a previously reported method (Supplementary Figure S4a)[37]. […] We undertook structural optimization by chemical modification. We designed new compounds utilizing a methyl group instead of the NP-1 chlorine moiety. Synthesis of target compounds was carried out according to the six-step protocol outlined in Supplementary Figure S4d, which was based on a previously described procedure[39],[40].
# as §1, §2
# [10] = tested on: PKM2 mitochondrial translocation; experiment: PKM2 mitochondrial translocation (fractionation, western blot) in HCT116 cells; assay type: cell-based, human; settings: for PKM2 mitochondrial translocation: HCT116, Supplementary Figure S1a
# Experimental: Fig. 6 Compound 8 blocks PKM2 mitochondrial translocation under nutritional stress and inhibits tumor growth in vivo. a Compound 8 blocks glucose starvation induced PKM2 mitochondrial translocation. Isolation of mitochondria and immunoblot of PKM2, tubulin and Tom 40 were carried out with or without compound 8 treatment. b Compound 8 disrupts interaction of PKM2 and VDAC3. HCT116 cells were transfected with HA-tagged PKM2, cells were harvested and subjected to stag pull down after 8 h 20 µM compound 8 treatment. c Compound 8 induces VDAC3 for degradation. cells were harvested and evaluated VDAC3 protein levels after 8 h 10 or 20 µM compound 8 treatment. d, e Compound 8 caused a decrease in the rate of NADH oxidation. After 8 h of treatment with 20 µM compound 8, HCT116 cells mitochondria were isolated for NADH oxidation assays. NAD/NADH ratios in HCT116 cell lysates were evaluated by LC–MS. f Compound 8 inhibited ATP production in HCT116 cells. g The tumor volume (n = 7) of HCT116 xenografts from mice with intraperitoneal injection of compound 8 and vehicle control
# HCT116 cells were harvested and washed two times with cold PBS. Cells were then homogenized in a buffer (220 mM mannitol, 70 mM sucrose, 2 mM EGTA, 5 mM MOPS-Tris pH 7.4, 2 mM Taurine, 0.2% BSA). The homogenate was spun for 5 min at 800g.The supernatant containing the cytoplasmic and mitochondrial fractions were transferred to a fresh tube and spun for 5 min at 12,000g. The pellet contained the mitochondrial fraction and the supernatant contained the cytoplasmic fraction.
# Cells were lysed in buffer containing 50 mM Tris pH8.0, 2 mM EDTA, 150 mM NaCl, 0.5% Nonidet P-40, 10% glycerol and protease inhibitor PMSF. Western blot analysis was carried out based on standard methods. The following commercial antibodies were used as probes: anti-Flag antibody (Sigma, F3165), anti-HA antibody (Sigma, H3663), anti-α-Tubulin (EasyBio, BE0026–100), anti-PKM2 (RuiYingBio, RLT3777), anti-TOM 40 (Santa Cruz sc-365467), anti-succinyllysine antibody (PTM BIO PTM-901), anti-GAPDH (SanJian).
# [11] = tested on: PKM2 succinylation; settings: 100 μM, 10 h, HCT116
# Experimental: Mitochondria and nuclear fractions were prepared from HCT116 cells under glucose starvation for 10 h. Immunofluorescence analysis was carried out after 10 h of glucose starvation. […] Analysis of PKM2 succinylation in whole-cell extracts prepared from HCT116 cells treated with increasing concentrations of glucose (0, 5, and 25 mM) or SIRT5 overexpression. Lysates prepared from these cells were pulled down with Flag beads and analyzed with antibody to succinylated lysine. d Effect of glucose starvation on endogenous PKM2 succinylation in cells. Analysis of PKM2 succinylation in whole-cell extracts prepared from HCT116 cells treated with increasing concentrations of glucose (0 and 25 mM). […] HCT116 cells were transfected with expression constructs of GFP-tagged vector control GFP-SIRT5. After 10 h glucose starvation, western blot analysis of cytosolic and mitochondrial fractions was performed to evaluate translocation of PKM2 from the cytosolic compartment to the mitochondria. […] 5000 HCT116 cells stably infected with Flag-PKM2 or Flag-PKM2 K433E virus were seeded into 96-well plates and live cell counts were measured in a blood cell counting chamber with trypan blue staining.
molecule,measurement,setting,value
Cc1ccc(C)n1-c1ccc(O)c(C(=O)O)c1 [Compound 3],PKM2 inhibition,[1],inhibits PKM2 activity at micromolar concentrations
same,suppression of tumor cell proliferation,[2],little suppression of tumor cell proliferation below 200 µM
"CC(C)C[C@@H](C=O)NC(=O)[C@H](CC(C)C)NC(=O)[C@H](CC(C)C)NC(=O)OCc1ccccc1 [MG132, reference compound] (Cbz-Leu-Leu-Leu-aldehyde)",VDAC3 protein level,[3],upregulated VDAC3
CC1=C(COP(N)(=O)N(CCCl)CCCl)C(=O)c2ccccc2C1=O (stereo not drawn) [NP-1],IC50,[4],13.7 ± 1.14 µM
same,IC50,[5],69.6 ± 6.26 µM
same,IC50,[6],14.3 ± 3.57 µM
same,IC50,[7],17.5 ± 6.34 µM
same,IC50,[8],8.17 ± 1.92 µM
same,IC50,[9],2.93 ± 0.77 µM
same,PKM2 inhibitory activity compared with shikonin,[9]; Supplementary Figure S4b,more powerful than shikonin
same,selectivity for PKM2 over PKM1 and PKL,[9]; Supplementary Figure S4c,"highly selective, dose-dependent inhibition of PKM2 with less inhibition of PKM1 and PKL"
"CC(C)=CC[C@@H](O)C1=CC(=O)c2c(O)ccc(O)c2C1=O [Shikonin, reference compound]",IC50,"[4]; recombinant enzyme, PK-LDH coupled assay, read-out: IC50 (PKM1)",13 ± 3.37 µM
same,IC50,"[5]; PK-LDH coupled assay, read-out: IC50 (PKL)",39.2 ± 6.53 µM
same,induction of cell apoptosis,[2],induces cell apoptosis at low concentrations
"O=C(O)CCC(=O)O [succinic acid, reference compound]",mitochondrial PKM2,"[10]; 100 μM, 10 h, HCT116",increased mitochondrial PKM2
same,PKM2 succinylation,[11],increased PKM2 succinylation
epidermal growth factor: growth factor used to stimulate HCT116 cells,PKM2 mitochondrial translocation,[10],did not increase PKM2 mitochondrial translocation
insulin: hormone used to stimulate HCT116 cells,PKM2 mitochondrial translocation,[10],did not increase PKM2 mitochondrial translocation
